The source of these data is article PMC12336229, “Peptide-mimetics derived from leucyl-tRNA synthetase are potential agents for the therapy of mt-tRNA related diseases” (Frontiers in Pharmacology, 2025).

For one data set, the system named is mutant cybrids. In words: Confocal fluorescence microscopy, co-localization with mitochondria (Mitotracker Red). Type of data set: cell-based, human. The method, then:
(§1) Previously established osteosarcoma-derived (143B.TK-) cybrid cell lines from patients, which bear either the m.3243A>G mutation in mt-tRNA^Leu(UUR) or the m.8344A>G mutation in mt-tRNA^Lys and controls ([Perli et al., 2014]; [Perli et al., 2016]; [Perli et al., 2020]) were used.
Constructs made of compounds listed in Table 1, comprising D-peptides linked to the Cy5 fluorophore via maleimide cross-linker, were administered to sub-confluent cybrid cell cultures at 0.25 µM in glucose medium. About 24 h after treatment with each construct, cells were incubated with 200 nM Mitotracker Red FM (LifeTechnologies Italia, Monza, Italy) for 30 min at 37°C.
Subsequently, cells were visualized by confocal microscopy. Images of 800 × 800 px (at 88 nm/px) were acquired at the Olympus iX83 FluoView1200 laser scanning confocal microscope using a 60 × NA1,35 oil objective (Olympus Italia SRL Milano, Italy), zoom 3×, 559 nm, and 635 nm lasers and filter setting for Mitotracker Red and Cy5. The fluorescence images were analysed with the ImageJ software ([Rasband, 2018]) to determine the Pearson’s correlation coefficient.
For a subset of experiments, we evaluated the mt localization of constructs up to 72 h after treatment. PMT and PMT fragments were administered to sub-confluent cybrids at a concentration of 0.25 µM in the glucose medium. At 24-, 48- and 72-h after treatment, cells were incubated with Mitotracker Red and visualized by confocal microscopy. After each confocal imaging section, a fresh glucose medium was added to the cells, which were maintained under standard conditions (a humidified atmosphere of 95% air and 5% CO2 at 37°C).

A further data set has as its system m.3243A>G mutant cybrids. In words: Respirometry assay, oxygen consumption rate (Clark type oxygen electrode). It counts as cell-based, human. The settings on record: 5 µM; after 36 h of treatment; compared with vehicle mutant cells. The method, then:
as §1
(§2) Oxygen consumption rate (OCR) of cybrids was evaluated with Clark type oxygen electrode (Hansatech Instruments, Norfolk, United Kingdom). After cybrid incubation with compounds at 5 µM concentration, both control and mutant cybrids were maintained in glucose medium for 36 h, then OCR was measured in intact cells (3 × 10^6) in 1 mL DMEM lacking glucose supplemented with […].

For data set [1], the system named is m.8344A>G mutant cybrids (H-8344). The description is as above. Type of data set: cell-based, human. Conditions: 5 µM; after 36 h of treatment; compared with vehicle mutant cells. As for the experimental part: as §1, §2
Data set [2] relates to control cells (WT and L-8344 cybrids). The description is as above. Type of data set: cell-based, human. The settings on record: after 36 h, treated/vehicle ratio. As for the experimental part: as §1, §2
Data set [3] can be described thus: Plasma stability (UPLC-MS). Type of data set: in vitro ADME, human. The settings on record: 37°C. The method, then:
To assess whether the β32_33 peptide, PMT, PMT-8a and PMT-8b peptide-mimetics are stable in blood, we set up a chromatographic assay able to evaluate compound concentration after incubation in human plasma.
Four different samples from healthy volunteers were used. Blood was drawn by venepuncture in vacutainer containing EDTA as an anticoagulant. Plasma was separated by centrifugation and immediately used for the experiments. Each compound was dissolved in 500 μL plasma at a final concentration of 0.2 mM and split into two aliquots, one of which was immediately analysed to assess the basal compound level (T0); the other was incubated at 37°C under gentle shaking, and the amount of each compound was measured at different time points (i.e., 1.5, 3, 6 and 72 h).
To perform chromatographic analyses, the samples were treated with 3 volumes of acetonitrile containing 1% formic acid and then extracted by using the Ostro™ pass-through sample preparation system to remove proteins and phospholipids. Samples were dried under vacuum, resuspended in 100 μL of 0.1% formic acid containing 5% acetonitrile, and then injected directly onto the chromatographic column.
Chromatographic analyses were performed on a Water Acquity H-Class UPLC system (Waters, Milford, MA, United States), including a quaternary solvent manager (QSM), a sample manager with a flow-through needle system (FTN), a photodiode array detector (PDA) and a single-quadruple mass detector with electrospray ionization source (ACQUITY QDa). Analyses were performed on a reverse phase C18 column (75 mm × 3.2 mm i. d., 2.5 μm particle size). The mobile phase was solvent A, 0.1% formic acid in water, and solvent B, 0.1% formic acid in acetonitrile. The flow rate was 0.5 mL/min, the column temperature was set at 25°C and the elution was performed by linearly increasing the concentration of solvent B up to 70% in 7 min. Mass spectrometric detection was performed in the positive electrospray ionization mode, using nitrogen as the nebulizer gas. Analyses were performed in the Total Ion Current (TIC) mode with a mass range of 100–1200 m/z. The capillary voltage was 0.8 kV, cone voltage 8 V, ion source temperature 120°C and probe temperature 600°C. Quantification was performed by Selected Ion Recording (SIR): at m/z = 917.88, corresponding to the [M+2H]^2+ ion obtained from either β32_33 peptide or PMT; at m/z = 961.42, corresponding to the [M + H] ^+ obtained from PMT-8a; and at m/z = 869.48, corresponding to the [M + H]^+ ion obtained from PMT-8b.

Molecules are shown by their SMILES.

With `CC[C@@H](C)[C@@H](NC(=O)[C@@H](CC(C)C)NC(=O)[C@@H](C)NC(=O)[C@H](NC(=O)[C@@H](CCCNC(=N)N)NC(=O)[C@H]1CCCN1C(=O)[C@@H](CO)NC(=O)[C@@H](CC(C)C)NC(=O)[C@@H](Cc1ccccc1)NC(=O)[C@@H](CO)NC(=O)[C@@H](CCCCN)NC(=O)[C@H](N)CCCCN)[C@H](C)O)C(=O)N[C@H](CC(N)=O)C(=O)N[C@H](Cc1ccccc1)C(=O)N[C@H](CC(C)C)C(=O)N[C@@H](C(N)=O)C(C)C` [PMT], in the data set on mutant cybrids (Cy5 constructs 0.25 µM in glucose medium, imaged after 24 h, Mitotracker Red, mean ± SEM of at least five images), the “Pearson's correlation coefficient (PCC), mt localization” value is 0.83 ± 0.02. The “Mitochondrial localization over time” value in the data set with mutant cybrids (Cy5 constructs 0.25 µM, imaged after 24, 48 and 72 hours) was “colocalize with mitochondria up to 72 hours”. The Oxygen consumption rate entry (with m.3243A>G mutant cybrids; in data set [1]) was “significant increase” in each case. Moreover, the “Oxygen consumption of control cells” value in data set [2] is reported as “do not affect”. The remaining at 72 h, 0.2 mM in data set [3] (72 h, human EDTA plasma from four healthy volunteers, gentle shaking, UPLC-MS (SIR), peak area vs time 0, read-out: Amount of detectable compound after incubation with human plasma) was approximately 25%. Further, the “Plasma stability compared with β32_33 peptide” value in data set [3] (all time points (1.5, 3, 6, 72 h), human plasma, 0.2 mM, UPLC-MS) is on record as “significantly higher plasma stability”.
